Data on 22 compounds can be found in ChEMBL document CHEMBL1795345, “Significant enhancement in radical-scavenging activity of curcuminoids conferred by acetoxy substituent at the central methylene carbon” (Bioorg Med Chem, 2011).

Experiment [1] concerns Radical scavenging activity. Kind of experiment: Antioxidant activity assessed as DPPH radical scavenging activity. The format is functional.
Experiment [2] concerns Radical scavenging activity. In words: Antioxidant activity assessed as reduction in compound induced DPPH radical scavenging activity at 100 uM in presence of 100 mM acetic acid measured 30 mins after mixing compound with DPPH. The class given is functional. Further details: scale not given: the % may be the effect or the level left. Background: DPPH is a stable violet radical that fades when it is reduced.

Usually EC50 stands for the concentration needed to bring the measured effect to its halfway point. Regarding `COc1ccc(/C=C/C(=O)/C=C(O)/C=C/c2ccc(OC)cc2)cc1`, the concentration giving a half-maximal response (EC50) in experiment [1] is over 100 µM. Same read-out and setting: then `CCOC(=S)S/C(C(=O)/C=C/c1ccc(OC)c(OC)c1)=C(O)\C=C\c1ccc(OC)c(OC)c1`, with over 100 µM. Consider `COc1ccc(/C=C/C(=O)/C(OC(C)=O)=C(O)/C=C/c2ccc(OC)cc2)cc1`, for which the EC50 in experiment [1] worked out at 32.8 µM. In addition, the Activity in experiment [2] worked out at 25%. For `CC(=O)O/C(C(=O)/C=C/c1ccccc1)=C(O)\C=C\c1ccccc1`, in that order: 47.8 µM and 25%. With `C=CC/C(C(=O)/C=C/c1ccc(O)c(OC)c1)=C(O)\C=C\c1ccc(O)c(OC)c1`, the EC50 in experiment [1] stood at 23.2 µM. On to `COc1cc(/C=C/C(=O)/C(OC(C)=O)=C(O)/C=C/c2cc(OC)c(OC)c(OC)c2)cc(OC)c1OC`, for which the EC50 in experiment [1] amounted to 27.4 µM. Further, in experiment [2], the Activity turned out to be 25%. The matching figures for `COc1cc(/C=C/C(=O)CC(=O)/C=C/c2ccc(O)c(OC)c2)ccc1O` [CURCUMIN]: 22.6 µM and 10%. For the compound `COc1cc(/C=C/C(=O)/C=C(O)/C=C/c2cc(O)c(O)c(OC)c2)cc(O)c1O`, the EC50 in experiment [1] came to 11.3 µM. On to `COc1ccc(/C=C/C(=O)/C(C)=C(O)/C=C/c2ccc(OC)c(OC)c2)cc1OC`, for which the EC50 in experiment [1] is over 100 µM.

For the compound `COc1cc(/C=C/C(=O)/C(C)=C(O)/C=C/c2ccc(O)c(OC)c2)ccc1O`, the EC50 in experiment [1] was found to be 23.2 µM. Consider `O=C(/C=C(O)/C=C/c1ccccc1)/C=C/c1ccccc1`, for which the EC50 in experiment [1] was over 100 µM.

In the case of `O=C(/C=C/c1ccc(O)cc1)CC(=O)/C=C/c1ccc(O)cc1` [BISDEMETHOXYCURCUMIN], the EC50 in experiment [1] is over 100 µM.

Regarding `O=C1O[C@H]([C@@H](O)CO)C(O)=C1O` [ASCORBIC ACID], the EC50 in experiment [1] turned out to be 15.7 µM. `COc1cc(/C=C/C(=O)/C(OC(C)=O)=C(O)/C=C/c2ccc(O)c(OC)c2)ccc1O`: the EC50 in experiment [1] worked out at 8.7 µM. Also, in experiment [2], the Activity is 10%.

Turning to `CCOC(=S)S/C(C(=O)/C=C/c1ccc(O)c(OC)c1)=C(O)\C=C\c1ccc(O)c(OC)c1`, in experiment [1], the EC50 was 29.7 µM. `CO/C(C(=O)/C=C/c1ccc(O)c(OC)c1)=C(O)\C=C\c1ccc(O)c(OC)c1`: in experiment [1], the EC50 was 30.3 µM. Same read-out and setting: then `C=CC/C(C(=O)/C=C/c1ccc(OC)c(OC)c1)=C(O)\C=C\c1ccc(OC)c(OC)c1`, with over 100 µM. In the case of `CC(=O)O/C(C(=O)/C=C/c1ccc(O)cc1)=C(O)\C=C\c1ccc(O)cc1`, the EC50 in experiment [1] was 26.3 µM. In experiment [2], the Activity was 13%. Turning to `COc1cc(/C=C/C(=O)/C(OC(C)=O)=C(O)/C=C/c2cc(O)c(O)c(OC)c2)cc(O)c1O`, the EC50 in experiment [1] was determined as 2.9 µM. `COc1ccc(/C=C/C(=O)/C(OC(C)=O)=C(O)/C=C/c2ccc(OC)c(OC)c2)cc1OC`: the EC50 in experiment [1] is 22.1 µM. Besides, the Activity in experiment [2] amounted to 25%. Regarding `COc1ccc(/C=C/C(=O)/C=C(O)/C=C/c2ccc(OC)c(OC)c2)cc1OC` [DIMETHYLCURCUMIN], the EC50 in experiment [1] is over 100 µM.

As to `CO/C(C(=O)/C=C/c1ccc(OC)c(OC)c1)=C(O)\C=C\c1ccc(OC)c(OC)c1`, in experiment [1], the EC50 came to 75.5 µM.
